Measurements published in ChEMBL document CHEMBL5512616, “pH regulators and their inhibitors in tumor microenvironment” (Eur J Med Chem, 2024).
Several values for one entry are separate records, joined by “and”; a condition that tells them apart may be missing. Identical values can stand only once.

Key:
[1] = target: T1, Sodium/hydrogen exchanger 1 (Homo sapiens, UniProt P19634)
[2] = target: T2, Carbonic anhydrase 2 (Homo sapiens, UniProt P00918)
[3] = target: T3, Monocarboxylate transporter 1 (Rattus norvegicus, UniProt P53987)
T3 sequence (P53987 whole entry): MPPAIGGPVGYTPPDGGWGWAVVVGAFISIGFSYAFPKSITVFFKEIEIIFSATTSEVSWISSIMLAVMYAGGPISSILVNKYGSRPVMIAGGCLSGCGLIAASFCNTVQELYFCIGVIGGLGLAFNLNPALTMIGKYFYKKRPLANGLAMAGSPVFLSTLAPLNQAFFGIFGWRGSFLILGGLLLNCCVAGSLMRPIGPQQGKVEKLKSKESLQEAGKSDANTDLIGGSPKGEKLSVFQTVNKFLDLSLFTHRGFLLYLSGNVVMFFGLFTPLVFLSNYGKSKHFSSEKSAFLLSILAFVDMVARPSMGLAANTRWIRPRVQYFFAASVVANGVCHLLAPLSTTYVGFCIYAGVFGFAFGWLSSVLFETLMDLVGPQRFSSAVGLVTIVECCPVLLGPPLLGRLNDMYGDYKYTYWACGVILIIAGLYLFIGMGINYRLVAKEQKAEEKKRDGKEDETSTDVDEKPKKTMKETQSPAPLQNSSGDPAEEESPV

[4] = target: T2, Carbonic anhydrase 2; remark: listed apart in the source
[5] = target: T2, Carbonic anhydrase 2; remark: listed apart in the source
[6] = target: T4, Carbonic anhydrase 9 (Homo sapiens, UniProt Q16790)
[7] = system: MCF7; assay: cells; settings: Homo sapiens, MCF7, 96 h
[8] = target: T4, Carbonic anhydrase 9; remark: listed apart in the source
[9] = target: T1, Sodium/hydrogen exchanger 1; assay type: cell-based, Platelet
[10] = system: Raji; assay: cells; settings: Homo sapiens, 96 h
[11] = system: MCF7; assay: cells; settings: Homo sapiens
[12] = system: HepG2; assay: cells; settings: Homo sapiens
[13] = system: A549; assay: cells; settings: Homo sapiens
[14] = target: T4, Carbonic anhydrase 9; remark: listed apart in the source
[15] = target: T1, Sodium/hydrogen exchanger 1; remark: listed apart in the source
[16] = target: T5, Monocarboxylate transporter 4 (Homo sapiens, UniProt O15427)
T5 sequence (O15427 whole entry): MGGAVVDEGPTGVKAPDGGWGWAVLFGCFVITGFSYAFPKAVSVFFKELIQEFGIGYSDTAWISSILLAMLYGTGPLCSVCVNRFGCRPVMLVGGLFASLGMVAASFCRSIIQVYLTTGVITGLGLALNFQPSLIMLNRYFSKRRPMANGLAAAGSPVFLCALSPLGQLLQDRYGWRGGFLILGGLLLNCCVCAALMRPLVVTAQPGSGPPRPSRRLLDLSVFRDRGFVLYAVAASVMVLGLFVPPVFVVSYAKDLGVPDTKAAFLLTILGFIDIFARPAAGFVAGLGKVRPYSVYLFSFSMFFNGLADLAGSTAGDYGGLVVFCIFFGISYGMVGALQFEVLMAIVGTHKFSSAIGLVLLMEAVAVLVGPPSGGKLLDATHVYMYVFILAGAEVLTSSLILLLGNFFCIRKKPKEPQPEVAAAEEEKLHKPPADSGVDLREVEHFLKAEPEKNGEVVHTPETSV

[17] = target: T6, Monocarboxylate transporter 1 (Homo sapiens, UniProt P53985)
T6 sequence (P53985 whole entry): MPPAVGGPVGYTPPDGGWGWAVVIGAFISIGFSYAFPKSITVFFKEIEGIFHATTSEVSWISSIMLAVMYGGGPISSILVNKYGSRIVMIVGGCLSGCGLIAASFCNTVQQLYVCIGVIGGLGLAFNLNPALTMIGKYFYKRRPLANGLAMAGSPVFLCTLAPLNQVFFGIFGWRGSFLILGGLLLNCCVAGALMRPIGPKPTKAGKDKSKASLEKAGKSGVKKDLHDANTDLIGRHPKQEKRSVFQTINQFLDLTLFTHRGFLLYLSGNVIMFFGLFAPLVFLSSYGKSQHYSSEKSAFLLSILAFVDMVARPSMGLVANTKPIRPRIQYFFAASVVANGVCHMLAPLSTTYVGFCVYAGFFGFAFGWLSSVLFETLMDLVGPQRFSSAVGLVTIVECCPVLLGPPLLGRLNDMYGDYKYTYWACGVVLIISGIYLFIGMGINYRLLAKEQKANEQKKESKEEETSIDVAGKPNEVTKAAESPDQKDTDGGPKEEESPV

[18] = target: T6, Monocarboxylate transporter 1; remark: listed apart in the source

T1 sequence (P19634 whole entry): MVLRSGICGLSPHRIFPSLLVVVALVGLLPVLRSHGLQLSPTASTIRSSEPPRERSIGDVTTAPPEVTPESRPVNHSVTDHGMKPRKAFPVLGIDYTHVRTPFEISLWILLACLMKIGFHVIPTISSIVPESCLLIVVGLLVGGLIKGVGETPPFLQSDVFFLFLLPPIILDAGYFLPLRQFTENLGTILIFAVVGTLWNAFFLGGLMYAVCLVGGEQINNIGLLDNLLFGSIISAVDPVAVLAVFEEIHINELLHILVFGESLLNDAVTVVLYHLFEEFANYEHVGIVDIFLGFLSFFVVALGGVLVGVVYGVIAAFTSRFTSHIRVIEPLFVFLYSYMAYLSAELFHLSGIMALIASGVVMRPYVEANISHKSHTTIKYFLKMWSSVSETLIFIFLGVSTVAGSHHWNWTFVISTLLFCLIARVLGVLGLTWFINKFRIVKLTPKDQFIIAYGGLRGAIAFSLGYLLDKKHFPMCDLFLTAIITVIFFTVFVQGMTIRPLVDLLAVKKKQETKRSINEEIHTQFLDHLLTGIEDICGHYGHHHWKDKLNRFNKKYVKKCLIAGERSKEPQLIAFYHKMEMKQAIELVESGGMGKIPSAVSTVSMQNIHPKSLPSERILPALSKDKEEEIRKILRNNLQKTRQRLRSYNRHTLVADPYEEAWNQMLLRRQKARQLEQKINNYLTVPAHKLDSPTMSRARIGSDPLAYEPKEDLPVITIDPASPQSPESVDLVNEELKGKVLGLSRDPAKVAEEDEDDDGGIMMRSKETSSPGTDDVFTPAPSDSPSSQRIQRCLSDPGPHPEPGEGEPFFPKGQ

## N=C(N)NC(=O)[C@H]1C[C@@H]1c1ccccc1
[1]
  IC50: 0.5 µM

## N#Cc1cc2ccc(O)cc2oc1=O
[2]
  Ki: > 200 µM

## COc1ccc(CN2CCN(CCOc3ccc(C(=O)N=C(N)N)cc3[N+](=O)[O-])CC2)c(OC)c1OC
[1]
  IC50: 0.104 µM

## COc1ccc(CN2CCN(CCOc3ccc(C(=O)NC(=N)N)cc3NC(=O)c3sccc3C)CC2)c(OC)c1OC
[1]
  IC50: 0.068 µM

## CCN(CC)c1ccc(/C=C(\C#N)C(=O)O)cc1
[3]
  IC50: 0.066 µM

## CC(C(=O)NCCOc1ccc2oc(=O)ccc2c1)c1ccc(-c2ccccc2)c(F)c1 (stereo not given)
[4]
  Ki: > 10 µM

## N#C/C(=C\c1c[nH]c2ccccc12)C(=O)O
[3]
  IC50: > 1 µM

## COc1ccc(CSc2nnc(COc3ccc4c(C)cc(=O)oc4c3)o2)cc1
[2]
  Ki: > 10 µM

## NS(=O)(=O)c1ccc(NCC(=O)N/N=C2\C(=O)N(Cc3ccccc3)c3ccccc32)cc1
[5]
  Ki: 0.204 µM

## C=C(C)[C@@H]1CC[C@]2(COS(N)(=O)=O)CC[C@]3(C)[C@H](CC[C@@H]4[C@@]5(C)CC[C@H](OC(=O)NCC)C(C)(C)[C@@H]5CC[C@]43C)[C@@H]12
[6]
  Ki: 0.00446 µM
[7]
  IC50: 10.5 µM

## CCCCCOc1ccc(C(=O)CN2CCN(Cc3ccc(OC)c(OC)c3OC)CC2)cc1C(=O)N=C(N)N
[1]
  IC50: 0.108 µM

## Cc1cccc(N2C(=O)CSC2c2cn(-c3ccccc3)nc2-c2cc3ccccc3oc2=O)c1 (stereo not given)
[4]
  Ki: > 10 µM
[8]
  Ki: 0.0615 µM

## NC(N)=NC(=O)c1cc2cccc3c2n1C(=O)CCCC3
[1]
  IC50: 0.006 µM

## CC(C)(C)[Si](CCOc1ccc(/C=C(\C#N)C(=O)O)cc1)(c1ccccc1)c1ccccc1
[3]
  IC50: 0.097 µM

## C=C(C)[C@@H]1CC[C@]2(COS(N)(=O)=O)CC[C@]3(C)[C@H](CC[C@@H]4[C@@]5(C)CC[C@H](OS(N)(=O)=O)C(C)(C)[C@@H]5CC[C@]43C)[C@@H]12
[7]
  IC50: 10.5 µM

## N#C/C(=C\c1cn(-c2ccccc2C(=O)O)c2ccccc12)C(=O)O
[3]
  IC50: > 1 µM

## Cc1nc2c(cc1C(=O)N=C(N)N)CCCCC2
[1]
  IC50: 0.017 µM

## NC(N)=NC(=O)c1cc(Cl)c(N)nc1N
[9]
  IC50: 1.3 µM

## CC(C)N1C(=O)C(C)(C)Oc2cc(C(=O)N=C(N)N)ccc21
[1]
  IC50: 0.2 µM

## O=C(Oc1ccc2c(-c3ccccc3)cc(=O)oc2c1)c1ccccc1
[2]
  Ki: > 10 µM

## CC(C)c1cc(=O)c2c(OCCCO)cc(OCc3cccc4ccccc34)cc2o1
[10]
  EC50: ≤ 0.1 µM

## Cn1c(=O)n(Cc2nnc(N)[nH]2)c(=O)c2ccccc21
[1]
  IC50: 5.8 µM

## Cc1c[nH]c(=O)n(CC(=O)N=C(N)N)c1=O
[1]
  IC50: 0.155 µM

## Nc1nn(C(=O)C23CC4CC(CC(C4)C2)C3)c(N)c1/N=N/c1ccccc1
[4]
  Ki: 0.0857 µM
[11]
  IC50: 4.68 µM
[12]
  IC50: 2.7 µM
[13]
  IC50: 1.55 µM

## Cc1cccc2c1cc(C(=O)N=C(N)N)n2C
[1]
  IC50: 0.1 µM

## CC(=O)Nc1cc([N+](=O)[O-])c(Cl)cc1C(=O)N=C(N)N
[9]
  IC50: 3.6 µM

## O=C(CN1C(=O)CSC1=O)c1cc2ccccc2oc1=O
[2]
  Ki: > 100 µM

## Cc1cc(=O)oc2cc(OCCCCCNc3nc4cc(-c5ccccc5)ccc4o3)ccc12
[2]
  Ki: > 10 µM
[14]
  Ki: 0.0322 µM

## Cn1c(C(=O)N=C(N)N)cc2ccccc21
[1]
  IC50: 1 µM

## CC(=O)C(C)/C(C)=N/NC(=O)C12CC3CC(CC(C3)C1)C2 (stereo not given)
[4]
  Ki: 0.256 µM
[11]
  IC50: 8.35 µM
[12]
  IC50: 7.82 µM
[13]
  IC50: 4.39 µM

## CC(C)c1cc(=O)c2c(OCc3ccccc3CO)cc(OCc3ncccc3C(F)(F)F)cc2o1
[10]
  EC50: ≤ 0.1 µM

## O=c1ccc2cc(-n3cc(CNc4ccc(Br)cc4)nn3)ccc2o1
[2]
  Ki: > 50 µM

## NC(N)=NC(=O)c1nc(Cl)c(N)cc1N
[9]
  IC50: 2.3 µM

## Cc1nc(-c2cc3ccccc3oc2=O)ccc1C(=O)/C=C/c1ccccc1
[2]
  Ki: > 100 µM

## CC(C)N1C(=O)C(C)(C)Oc2ccc(C(=O)N=C(N)N)cc21
[1]
  IC50: 0.12 µM

## NC(N)=NC(=O)c1cc(Cl)c(N)cc1N
[9]
  IC50: 16 µM

## Cc1nc(C(=O)N=C(N)N)c(N)nc1N1CCCOCC1
[15]
  IC50: 0.085 µM

## NC(N)=NC(=O)c1ccc2c(Br)cccc2c1
[1]
  IC50: 0.01 µM

## COc1ccc(CN2CCN(Cc3ccc(C(=O)N=C(N)N)cc3NC(=O)c3ccc(C(F)(F)F)cc3)CC2)c(OC)c1OC
[1]
  IC50: 3.53 µM

## C=CCN1CCN(Cc2c(O)ccc3c(C)cc(=O)oc23)CC1
[4]
  Ki: > 10 µM

## NS(=O)(=O)c1ccc(CN/C=C/C(=O)/C=C/c2cc3ccccc3oc2=O)cc1
[4]
  Ki: 0.044 µM
[8]
  Ki: 0.0089 µM

## CC(=O)c1ccc(-c2cc3ccccc3oc2=O)nc1C
[2]
  Ki: > 100 µM
[14]
  Ki: 0.625 µM

## CC(C)c1cc(=O)c2c(OCc3ccccc3CO)cc(OCc3ccnc4ccccc34)cc2o1
[10]
  EC50: ≤ 0.1 µM

## Cc1ccc(-c2cc(C)c(C(=O)N=C(N)N)cc2S(C)(=O)=O)cc1
[9]
  IC50: 0.025 µM

## CS(=O)(=O)c1cc(C(=O)N=C(N)N)ccc1N1CCCCC1
[9]
  IC50: 0.1 µM and 0.8 µM

## Cc1cc(C(C)C)c(S(C)(=O)=O)cc1C(=O)N=C(N)N
[9]
  IC50: 0.002 µM

## CCN(c1nc(N)c(C(=O)NC(=N)N)nc1Cl)C(C)C [5-(N-ETHYL-N-ISOPROPYL)AMILORIDE]
[9]
  IC50: 0.5 µM

## CC(C)CN(C)c1nc(N)c(C(=O)N=C(N)N)nc1Cl [5-(N-METHYL-N-ISOBUTYL)AMILORIDE]
[15]
  IC50: 0.174 µM

## CC(C)c1c(C(=O)Nc2ccccc2)c(-c2ccccc2)c(-c2ccc(F)cc2)n1CC[C@@H](O)C[C@@H](O)CC(=O)O [ATORVASTATIN CALCIUM]
[16]
  IC50: ~138 µM
[17]
  IC50: > 210 µM

## CC(C)c1ccc(C(=O)NC(=N)N)cc1S(C)(=O)=O [CARIPORIDE]
[9]
  IC50: 0.8 µM and 0.2 µM

## Cc1cc(-n2cccc2)c(S(C)(=O)=O)cc1C(=O)NC(=N)N [ENIPORIDE]
[9]
  IC50: 0.08 µM

## CCOC(=O)N1CCC(=C2c3ccc(Cl)cc3CCc3cccnc32)CC1 [LORATADINE]
[16]
  IC50: > 300 µM
[17]
  IC50: ~100 µM

## O=c1cc(-c2ccc(O)c(O)c2)oc2cc(O)cc(O)c12 [LUTEOLIN]
[18]
  IC50: 0.41 µM

## O=c1c(O)c(-c2ccc(O)cc2O)oc2cc(O)cc(O)c12 [MORIN]
[18]
  IC50: 6.21 µM

## N=C(N)NC(=O)c1nc(Cl)c(N2CCCCCC2)nc1N [N,N-HEXAMETHYLENEAMILORIDE]
[9]
  IC50: 3.3 µM

## O=C(CCc1ccc(O)cc1)c1c(O)cc(O)cc1O [PHLORETIN]
[18]
  IC50: 2.57 µM

## Cc1cc(S(C)(=O)=O)c(S(C)(=O)=O)cc1C(=O)NC(=N)N [RIMEPORIDE]
[9]
  IC50: 0.113 µM
